Results from publication PMC10584170, “Machine learning-based phenotypic imaging to characterise the targetable biology of Plasmodium falciparum male gametocytes for the development of transmission-blocking antimalarials” (PLOS Pathogens, 2023).

How the values were obtained:
[1] = test system: P. falciparum female gametocytes; assay: P. falciparum Dual Gamete Formation Assay (PfDGFA), female readout (Pfs25-positive female gametes); type: cell-based, Plasmodium falciparum NF54; conditions: for % inhibition female (individual replicates) R1: replicate R1; for % inhibition female (individual replicates) R3: replicate R3; for % inhibition female (individual replicates) R4: replicate R4; for Average inhibition female (%): average of replicates
Summary of the method: (§1)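 Day-14 NF54 gametocytes were incubated with compound for 24 h at 37°C under 1% O2/3% CO2/96% N2. Gametogenesis was triggered with ookinete medium (0.1 μM xanthurenic acid) plus Cy3-anti-Pfs25, and exflagellation was imaged by brightfield after cooling to 4°C then 28°C. Females were imaged by Pfs25 fluorescence 24 h later at 28°C.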

[2] = test system: P. falciparum male gametocytes; assay: P. falciparum Dual Gamete Formation Assay (PfDGFA), male readout (exflagellation); type: cell-based, Plasmodium falciparum NF54; conditions: for % inhibition male (individual replicates) R1: replicate R1; for % inhibition male (individual replicates) R3: replicate R3; for % inhibition male (individual replicates) R4: replicate R4; for Average inhibition male (%): average of replicates; for Activity: hit = >50% inhibition in male or female readout in at least 3 replicates, 0 = no class assigned
Summary of the method: as §1

[3] = PfDGFA at 2µM, 24h preincubation with gametocytes prior to induction of gametogenesis
[4] = PfDGFA at 2µM, 24h preincubation
[5] = 2µM, 24h preincubation with gametocytes prior to induction of gametogenesis
[6] = 2µM, 24h preincubation, hits selected on >50% inhibition in the female readout across replicates
[7] = 2µM, 24h preincubation, hits selected on >50% inhibition in the male readout across replicates
[8] = PfDGFA at 2µM, 24h preincubation with gametocytes
[9] = number of replicates with >50% inhibition in the female readout, 2µM
[10] = number of replicates with >50% inhibition in the male readout, 2µM
[11] = 2µM, 24h preincubation, number of replicates with >50% inhibition in the female readout
[12] = 2µM, 24h preincubation, number of replicates with >50% inhibition in the male readout

CCN(CC)S(=O)(=O)n1ncc2c3c(N)nc(N)nc3ccc21.Cl [TCMDC-137302]
% inhibition female (individual replicates) R1 [1, 3]: 5.9%
% inhibition female (individual replicates) R3 [1, 3]: -12.1%
% inhibition female (individual replicates) R4 [1, 3]: -12.9%
Average inhibition female (%) [1, 4]: -8.3%
% inhibition male (individual replicates) R1 [2, 3]: 16.7%
% inhibition male (individual replicates) R3 [2, 3]: -8.5%
% inhibition male (individual replicates) R4 [2, 3]: -41.8%
Average inhibition male (%) [2, 4]: 0.1%

O=C1O[C@H](c2ccccc2)[C@H](c2ccccc2)N(C(=O)OCc2ccccc2)[C@H]1Cc1ccccc1C1CCCC1 [TCMDC-137303]
Average inhibition female (%) [1, 5]: 4.6%
% inhibition female (individual replicates) R1 [1, 5]: 6.2%
% inhibition female (individual replicates) R3 [1, 5]: -0.36%
% inhibition female (individual replicates) R4 [1, 5]: 6.0%
HitlevelF [1, 6]: 0
Average inhibition male (%) [2, 5]: -2.7%
% inhibition male (individual replicates) R1 [2, 5]: 16.1%
% inhibition male (individual replicates) R4 [2, 5]: -23.7%
HitlevelM [2, 7]: 0
Activity [2, 4]: 0

CCc1cc2c3c(N)nc(N)nc3ccc2n1C(C)(C)C [TCMDC-137306]
% inhibition female (individual replicates) R1 [1, 3]: -1.8%
% inhibition female (individual replicates) R3 [1, 3]: -28.9%
% inhibition female (individual replicates) R4 [1, 3]: 1.8%
Average inhibition female (%) [1, 4]: -7.8%
% inhibition male (individual replicates) R1 [2, 3]: 25.5%
% inhibition male (individual replicates) R3 [2, 3]: 27.4%
% inhibition male (individual replicates) R4 [2, 3]: 15.6%
Average inhibition male (%) [2, 4]: 21.0%

CC(C)n1c(C(C)(C)C)cc2c3c(N)nc(N)nc3ccc21 [TCMDC-137311]
Average inhibition female (%) [1, 8]: -0.8%
% inhibition female (individual replicates) R1 [1, 8]: -8.1%
% inhibition female (individual replicates) R3 [1, 8]: 21.9%
% inhibition female (individual replicates) R4 [1, 8]: -9.1%
HitlevelF [1, 9]: 0
Average inhibition male (%) [2, 8]: 66.3%
% inhibition male (individual replicates) R1 [2, 8]: 58.8%
% inhibition male (individual replicates) R3 [2, 8]: 70.2%
% inhibition male (individual replicates) R4 [2, 8]: 54.6%
HitlevelM [2, 10]: 4

COc1ccc2c(c1CCNCCCCNCCc1c(OC)ccc3c1CCCC3)CCCC2.CS(=O)(=O)O [TCMDC-137324]
Average inhibition female (%) [1, 8]: 79.4%
% inhibition female (individual replicates) R1 [1, 8]: 79.9%
% inhibition female (individual replicates) R3 [1, 8]: 84.0%
% inhibition female (individual replicates) R4 [1, 8]: 85.5%
HitlevelF [1, 9]: 4
Average inhibition male (%) [2, 8]: 81.7%
% inhibition male (individual replicates) R1 [2, 8]: 91.2%
% inhibition male (individual replicates) R3 [2, 8]: 86.5%
% inhibition male (individual replicates) R4 [2, 8]: 98.0%
HitlevelM [2, 10]: 4

CC(C(=O)OCCOCn1cnc2c(=O)[nH]c(N)nc21)N(C)C(=O)OC(C)(C)C (stereo not shown) [TCMDC-137343]
% inhibition female (individual replicates) R1 [1, 3]: 1.2%
% inhibition female (individual replicates) R3 [1, 3]: -8.6%
% inhibition female (individual replicates) R4 [1, 3]: 4.1%
Average inhibition female (%) [1, 4]: -0.55%
% inhibition male (individual replicates) R1 [2, 3]: 2.6%
% inhibition male (individual replicates) R4 [2, 3]: -43.6%
Average inhibition male (%) [2, 4]: -14.6%

Cl.c1ccc2c(Nc3ccc(Cc4ccc(Nc5c6ccccc6nc6ccccc56)cc4)cc3)c3ccccc3nc2c1 [TCMDC-137354]
Average inhibition female (%) [1, 5]: 87.8%
% inhibition female (individual replicates) R1 [1, 5]: 83.3%
% inhibition female (individual replicates) R3 [1, 5]: 91.0%
% inhibition female (individual replicates) R4 [1, 5]: 96.5%
HitlevelF [1, 11]: 4
Average inhibition male (%) [2, 5]: 52.9%
% inhibition male (individual replicates) R1 [2, 5]: 49.4%
% inhibition male (individual replicates) R3 [2, 5]: 55.5%
% inhibition male (individual replicates) R4 [2, 5]: 71.3%
HitlevelM [2, 12]: 2

Cl.c1ccc2c(Nc3ccc(OCCOCCOc4ccc(Nc5c6ccccc6nc6ccccc56)cc4)cc3)c3ccccc3nc2c1 [TCMDC-137355]
Average inhibition female (%) [1, 5]: 29.1%
% inhibition female (individual replicates) R1 [1, 5]: 27.7%
% inhibition female (individual replicates) R3 [1, 5]: 5.6%
% inhibition female (individual replicates) R4 [1, 5]: 8.9%
HitlevelF [1, 11]: 1
Average inhibition male (%) [2, 5]: 37.2%
% inhibition male (individual replicates) R1 [2, 5]: 36.9%
% inhibition male (individual replicates) R3 [2, 5]: -1.4%
% inhibition male (individual replicates) R4 [2, 5]: 40.2%
HitlevelM [2, 12]: 1

COc1cc(Cc2cnc(N)nc2N)cc(OCCCC(=O)O)c1OC [TCMDC-137359]
Average inhibition female (%) [1, 5]: 3.8%
% inhibition female (individual replicates) R1 [1, 5]: 8.3%
% inhibition female (individual replicates) R3 [1, 5]: -22.8%
% inhibition female (individual replicates) R4 [1, 5]: 31.0%
HitlevelF [1, 6]: 0
Average inhibition male (%) [2, 5]: 4.4%
% inhibition male (individual replicates) R1 [2, 5]: 4.7%
% inhibition male (individual replicates) R3 [2, 5]: 7.0%
% inhibition male (individual replicates) R4 [2, 5]: 5.5%
HitlevelM [2, 7]: 0
Activity [2, 4]: 0

CCc1nc(N)nc(N)c1-c1cccc(Cl)c1 [TCMDC-137371]
Average inhibition female (%) [1, 5]: 4.1%
% inhibition female (individual replicates) R1 [1, 5]: 14.2%
% inhibition female (individual replicates) R3 [1, 5]: -6.6%
% inhibition female (individual replicates) R4 [1, 5]: 5.2%
HitlevelF [1, 6]: 0
Average inhibition male (%) [2, 5]: -6.5%
% inhibition male (individual replicates) R1 [2, 5]: 19.6%
% inhibition male (individual replicates) R3 [2, 5]: -24.6%
% inhibition male (individual replicates) R4 [2, 5]: -25.1%
HitlevelM [2, 7]: 0
Activity [2, 4]: 0

CCCc1cc(OC)c(CC2c3cc(O)c(Cl)cc3C(c3ccccc3)CN2C)cc1OC.Cl (stereo not shown) [TCMDC-137432]
Average inhibition female (%) [1, 5]: 7.6%
% inhibition female (individual replicates) R1 [1, 5]: -2.1%
% inhibition female (individual replicates) R3 [1, 5]: 40.4%
% inhibition female (individual replicates) R4 [1, 5]: -8.9%
HitlevelF [1, 6]: 0
Average inhibition male (%) [2, 5]: 3.7%
% inhibition male (individual replicates) R1 [2, 5]: 2.4%
% inhibition male (individual replicates) R3 [2, 5]: -26.9%
% inhibition male (individual replicates) R4 [2, 5]: 27.9%
HitlevelM [2, 7]: 0
Activity [2, 4]: 0

Cl.N=C(NCCCc1ccccc1)c1cccc(C(=N)NCCCc2ccccc2)n1 [TCMDC-137453]
Average inhibition female (%) [1, 5]: 26.7%
% inhibition female (individual replicates) R1 [1, 5]: 21.1%
% inhibition female (individual replicates) R3 [1, 5]: 29.3%
% inhibition female (individual replicates) R4 [1, 5]: 27.4%
HitlevelF [1, 11]: 0
Average inhibition male (%) [2, 5]: 15.3%
% inhibition male (individual replicates) R1 [2, 5]: 11.4%
% inhibition male (individual replicates) R3 [2, 5]: -5.0%
% inhibition male (individual replicates) R4 [2, 5]: 33.6%
HitlevelM [2, 12]: 0

CC(CNC(=N)c1cccc(C(=N)NCC(C)Oc2cccc(C3CCCCC3)c2)n1)Oc1cccc(C2CCCCC2)c1.Cl (stereo not shown) [TCMDC-137455]
Average inhibition female (%) [1, 8]: 40.6%
% inhibition female (individual replicates) R1 [1, 8]: 53.6%
% inhibition female (individual replicates) R3 [1, 8]: 30.8%
% inhibition female (individual replicates) R4 [1, 8]: 44.6%
HitlevelF [1, 9]: 1
Average inhibition male (%) [2, 8]: 81.3%
% inhibition male (individual replicates) R1 [2, 8]: 90.7%
% inhibition male (individual replicates) R3 [2, 8]: 87.0%
% inhibition male (individual replicates) R4 [2, 8]: 101.3%
HitlevelM [2, 10]: 3

N=C(NCC1CC1c1ccccc1)c1cccc(C(=N)NCC2CC2c2ccccc2)n1 (stereo not shown) [TCMDC-137456]
Average inhibition female (%) [1, 8]: 33.5%
% inhibition female (individual replicates) R1 [1, 8]: 27.8%
% inhibition female (individual replicates) R3 [1, 8]: 24.0%
% inhibition female (individual replicates) R4 [1, 8]: 33.0%
HitlevelF [1, 9]: 0
Average inhibition male (%) [2, 8]: 66.3%
% inhibition male (individual replicates) R1 [2, 8]: 75.4%
% inhibition male (individual replicates) R3 [2, 8]: 23.0%
% inhibition male (individual replicates) R4 [2, 8]: 81.6%
HitlevelM [2, 10]: 3
